According to patent US20040266885A1, “Wood preservative compositions” (priority 2001, published 2004):
Several values for one entry are separate records, joined by “and”; a condition that tells them apart may be missing. Identical values can stand only once. Like-named read-outs stand apart in the source and are kept apart here.

Tested on: Coptotermes formosanus
Details: for Mean Rating (termite attack): mean of 4 specimens; for Mean Rating (termite attack) / Termite Attack Rating: 4 weeks sand culture; for Termite Attack Rating: single specimen
Excerpt: A laboratory test was undertaken to determine the toxic values of novel actives against termites. The active materials used were TBBA, TBBE [4,4′-ethylidenebis(2,6-dibromophenol)] [CAS RN=12639-25-3] (Sample Number 1392-82-03); TBBZ [4,4′-cyclohexylidene(2,6-dibromophenol)] [CAS RN=53350-96-2] (Sample Number 1392-72-03) and TBA, 2,2′,6-tribromo-4,4′-isopropylidenediphenol, CAS 6386-73-8 (Sample Number 1392-75-03).
The test was undertaken largely according to the strictures laid down in ASTM 3345-74 (the American standard laboratory test to assess the termite resistant properties of wood to wood destroying termites). The test method allows for the exposure of treated buried wood blocks to termites (Reticulitermes or Coptotermes spp.) over a period of 4 weeks. Efficacy of the product is determined by the extent of termite damage to the treated timber specimens through a scoring system. The test was slightly modified from the standard ASTM test by reducing the number of replicate wood specimens from 5 to 4.
Score 1: Attempted attack
The toxic values of the preservative product (in kg/m^3 of wood) fall between two values as follows:
1) The lowest concentration which protects the wood (i.e. the concentration at which none of the test specimens show a degree of attack greater than 1).
The termites employed were Coptotermes formosanus.
All wood bock specimens were of Southern Yellow Pine sapwood (Pinus spp.) with dimensions of 25.4×25.4×6.4 mm in accordance with ASTM D3345-74. All blocks were vacuum impregnated with the relevant solutions in accordance with ASTM D3345-74. Distribution of blocks in the test was as follows:
The test specimens were conditioned and subjected to a leaching schedule (after vacuum impregnation) as stipulated in ASTM D1413-76 (as recommended in ASTM D3345-74). All test specimens were then air dried for two weeks to constant weight.
The specimens were each positioned at the base of a 500 ml polyethylene culture jar (numbered according to each test specimen) and covered with 200 g of sand (pre-washed, sterilised and air conditioned in the laboratory) to which was added 25 g of de-ionised water. A further two containers containing watered sand but no timber were also prepared. All the jars were sealed (lids pre-pierced and covered with stainless steel mesh for aeration).
Two days after specimen placement, 200 termites were added to each culture jar (90% workers and 10% soldiers) and the jars re-sealed. The jars were incubated at a mean temperature and relative humidity of 27.5° C. and 75-90% for 4 weeks. The containers were provided with an artificial lighting regime of 10 hours light and 14 hours darkness.
After 1 week and 4 weeks each container was examined to determine termite mortality and normal tunneling behaviour patterns as follows:
Is there tunneling present: YES/NO
Are there any termites on the surface of the soil: YES/NO (if yes how many, i.e. 1-25% of pop, 26-50% of pop, 51-100% of pop.)
Are any dead termites visible: YES/NO (if yes how many, 1-33%, 34-66%, 67-100%)
After 4 weeks the test specimens were removed and cleaned of debris. Each block was examined and visually rated for termite damage using the scoring system detailed above.

[1] = 1 week, solution conc. 1%, ethanol carrier
[2] = 1 week, solution conc. 3%, ethanol carrier
[3] = 1 week, solution conc. 5%, ethanol carrier
[4] = 1 week, solution conc. 7%, ethanol carrier
[5] = 1 week, solution conc. 10%, ethanol carrier
[6] = 4 weeks, solution conc. 1%, ethanol carrier
[7] = 4 weeks, solution conc. 3%, ethanol carrier
[8] = 4 weeks, solution conc. 5%, ethanol carrier
[9] = 4 weeks, solution conc. 7%, ethanol carrier
[10] = 4 weeks, solution conc. 10%, ethanol carrier
[11] = solution conc. 1%, ethanol carrier
[12] = solution conc. 3%, ethanol carrier
[13] = solution conc. 5%, ethanol carrier
[14] = solution conc. 7%, ethanol carrier
[15] = solution conc. 10%, ethanol carrier
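Wherever Termite Attack Rating is given: score 0 no attack 2 slight 3 average 4 strong attack.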

CC(C)(c1cc(Br)c(O)c(Br)c1)c1cc(Br)c(O)c(Br)c1 [TBBA, Tetrabromobisphenol A]
Surface Activity (termites on the surface of the soil) [1]: No/No
Tunneling Activity [1]: Yes/Yes
Visible Mortality [1]: No/No
Surface Activity (termites on the surface of the soil) [2]: No/No
Tunneling Activity [2]: Yes/Yes
Visible Mortality [2]: No and No/No
Surface Activity (termites on the surface of the soil) [3]: 1-25 % (of pop.)
Tunneling Activity [3]: Yes/Yes
Surface Activity (termites on the surface of the soil) [4]: No/No
Tunneling Activity [4]: Yes/Yes
Visible Mortality [4]: No
Surface Activity (termites on the surface of the soil) [5]: No
Tunneling Activity [5]: Yes/Yes
Visible Mortality [5]: No
Surface Activity (termites on the surface of the soil) [6]: No/No
Tunneling Activity [6]: Yes/Yes
Visible Mortality [6]: No/No
Surface Activity (termites on the surface of the soil) [7]: No/No
Tunneling Activity [7]: Yes/Yes
Surface Activity (termites on the surface of the soil) [8]: No
Tunneling Activity [8]: Yes/Yes
Surface Activity (termites on the surface of the soil) [9]: No/No
Tunneling Activity [9]: Yes/Yes
Surface Activity (termites on the surface of the soil) [10]: 1-25 % (of pop.)
Tunneling Activity [10]: Yes/Yes
Visible Mortality [10]: 67-100 % (of pop.)
reduction in termite attack (concentrated solutions, followed by leaching): a significant reduction in termite attack
repellent effect on termites (surface activity data) (ethanol carrier): a degree of termite repellency throughout the incubation period
toxic value, lower (concentration at which the wood is no longer sufficiently protected) (mean loading, solution concentration 5%, ethanol carrier, leached, 4 weeks): 32.52 kg/m^3
toxic value, upper (lowest concentration which protects the wood) (mean loading, solution concentration 7%, ethanol carrier, leached, 4 weeks): 44.00 kg/m^3
Mean Rating (termite attack) [11]: 2.75
Termite Attack Rating [11]: 3 and 2 and 4
Mean Rating (termite attack) [12]: 2.25
Termite Attack Rating [12]: 2 and 3
Mean Rating (termite attack) [13]: 1.50
Termite Attack Rating [13]: 1 and 2
Mean Rating (termite attack) [14]: 1.00
Termite Attack Rating [14]: 1
Mean Rating (termite attack) [15]: 1.00
Termite Attack Rating [15]: 1
